These results are taken from paper PMC5559315 (Biochimie, 2017).

Assay [1] has as its target ferrous So H-NOX. The experiment in a line: Stopped-flow binding kinetics of gaseous ligands to ferrous So H-NOX. Further details: species or system Shewanella oneidensis. The following applies: for kon: ferrous So H-NOX, room temperature, anaerobic, CO: 6c CO-heme-His complex.
Assay [2] concerns the target Cb H-NOX. The following applies: ref [11], cited from earlier work.
In assay [3] the target is Ns H-NOX. The following applies: cited from earlier work; for Kd / koff / kon: ref [10],[18].
Assay [4] has as its target Tt H-NOX. Particulars: ref [11], cited from earlier work; for Kd / koff / kon: NO: 6c NO-heme-His complex.
The target in assay [5] is Vc H-NOX. The following applies: ref [9], cited from earlier work.
For assay [6], the target named is soluble guanylyl cyclase (sGC). Particulars: cited from earlier work; for Kd / koff / kon: ref [18].
Assay [7] has as its target full length sGC from Manduca sexta (Ms sGC). Particulars: read-out: KD(CO), ref [27]; cited from earlier work.
Assay [8] addresses Ms sGC NT2. The following applies: read-out: KD(CO); Ms sGC NT2, lacking 48 residues from α-subunit N-terminus and the catalytic domains; ref [27]; cited from earlier work.
In assay [9] the target is β H-NOX/PAS subunit of Ms sGC. The following applies: read-out: KD(CO); β H-NOX/PAS subunit alone; ref [27]; cited from earlier work.
Assay [10] deals with Vc H-NOX. The experiment in a line: Gaseous ligand binding kinetics of Vc H-NOX. On the set-up: species or system Vibrio cholera. The following applies: reacted with 600 µM O2; data not shown.
Setting [11] is: calculated as koff/kon, NO: 6c NO-heme-His complex.
Where [12] appears, read: NO: 6c NO-heme-His complex, O2: high pressure cell.
[13] abbreviates: O2, estimated based on the sliding scale rule.
Setting [14] is: Intermediate NO-heme--NO(−-His), estimated based on computer simulations.

Entries after “also recorded” stand apart in the source; their conditions may differ. Where two headings read alike, the source gives them in different places.

For `[C-]#[O+]` [CO, carbon monoxide], the Kd is 0.85 µM in [1] (setting [11]); 670 nM in [2] (NO: 6c NO-heme-His complex); 1.4 µM in assay [3] (setting [12]); 160 nM in assay [4]; 0.77 µM in assay [5] (NO: 6c NO-heme-His complex); 260 µM in assay [6] (NO: 6c NO-heme-His complex). Moreover, the Kd is 50 to 100 µM in [7], 50 to 100 µM in assay [8] and 0.2 µM in assay [9]. Further, the kon in [1] (NO: 6c NO-heme-His complex) was 820000 M⁻¹ s⁻¹; in [2] (NO: 6c NO-heme-His complex), 1.5e+06 M⁻¹ s⁻¹; in assay [3] (NO: 6c NO-heme-His complex), 3e+06 M⁻¹ s⁻¹; in assay [4], 3.3e+06 M⁻¹ s⁻¹; in assay [5] (NO: 6c NO-heme-His complex), 1.1e+06 M⁻¹ s⁻¹; in [6] (NO: 6c NO-heme-His complex) it was 40000 M⁻¹ s⁻¹. Besides, the koff in assay [2] (NO: 6c NO-heme-His complex) is 1.0 s⁻¹; in assay [3] (NO: 6c NO-heme-His complex), 3.6 s⁻¹; in assay [4], 0.5 s⁻¹; in assay [5] (NO: 6c NO-heme-His complex) it was 0.85 s⁻¹; in assay [6] (NO: 6c NO-heme-His complex), 10.7 s⁻¹.
With `O=O` [O2], the O2 binding result in [1] (O2-saturated buffer, final [O2] = 600 µM, no oxyferrous intermediate) was “does not bind O2”. The Kd is roughly 4500 µM in [1] (setting [13]); 53000 nM in assay [2] (NO: 6c NO-heme-His complex); 13000 µM in assay [3] (setting [12]); 44 nM in [4]; roughly 1300 µM in assay [5] (setting [13]). Further, the autoxidation rate was ~ 4 × 10^−3 s^−1 in assay [10], 0.02 s⁻¹ in [2] (reacted with 600 µM O2) and 1.4e-05 s⁻¹ in assay [3] (ref [10]). In [4], the koff was 1.9 s⁻¹. For the same compound, the kon in assay [4] is 4.3e+07 M⁻¹ s⁻¹. The “autoxidation of oxyferrous heme” value in [4] was “no autoxidation is observed”.
As for nitric oxide [NO], in assay [1] (5c heme-NO complex, CO displacement method), the “koff,5c(NO)” value is 0.0013 s⁻¹. Also, the “koff, dissociation rate of NO from the quaternary intermediate” value in assay [1] (Intermediate NO-heme--NO(−-His), y-intercept of secondary plot) is on record as “very small; also recorded: small”. For the same compound, the Kd in [1] (setting [11]) was 0.00015 µM; in assay [2] (NO: 6c NO-heme-His complex), 0.08 nM; in assay [2] (read-out: KD(NO)(apparent), 5c heme-NO complex) it was 0.0073 nM; in assay [3] (2nd 6c NO-heme-His complex) it was 0.8 µM; in assay [3] (setting [12]), 0.00017 µM; in assay [4], 0.023 nM. The Kd in [5] (NO: 6c NO-heme-His complex) is 0.00027 µM; in assay [6] (NO: 6c NO-heme-His complex), 0.054 µM. In addition, the kon was 1.5e+09 M⁻¹ s⁻¹ in assay [1] (NO: 6c NO-heme-His complex); 1.8 × 10^7 ^‡ M^−1s^−1 in assay [2] (setting [14]); 1.5e+08 M⁻¹ s⁻¹ in assay [2] (NO: 6c NO-heme-His complex); 2.4e+06 M⁻¹ s⁻¹ in [3] (2nd 6c NO-heme-His complex); 3e+08 M⁻¹ s⁻¹ in assay [3] (NO: 6c NO-heme-His complex); 1.5e+08 M⁻¹ s⁻¹ in assay [4]. The values for the association rate constant (kon) in assay [5] (setting [14]), in [5] (NO: 6c NO-heme-His complex) and in assay [6] (NO: 6c NO-heme-His complex) were 2.5 × 10^7 ^‡ M^−1s^−1, 1.1e+09 M⁻¹ s⁻¹ and 1.4e+08 M⁻¹ s⁻¹, respectively. Further, the “formation rate of the 5c heme-NO complex (D → E)” value in assay [1] (not measured directly, significantly faster than kobs at 30 µM NO) is greater than 600 s⁻¹. Also, the off-rate constant (koff) in assay [2] (5c heme-NO complex) was 0.0011 s⁻¹; in assay [2] (NO: 6c NO-heme-His complex), 0.012 s⁻¹; in [3] (2nd 6c NO-heme-His complex) it was 1.9 s⁻¹; in [3] (NO: 6c NO-heme-His complex), 0.05 s⁻¹; in assay [4], 0.0034 s⁻¹; in assay [5] (5c heme-NO complex), 10^−3 – 10^−2 s^−1. Further, the off-rate constant (koff) was 4.5 × 10^3 ^‡ s^−1 in [5] (setting [14]); 0.3 s⁻¹ in assay [5] (NO: 6c NO-heme-His complex); 10^−4 – 10^−3 s^−1 in assay [6] (5c heme-NO complex); 26 s⁻¹ in assay [6] (Intermediate NO-heme--NO(−-His)); 27 s⁻¹ in assay [6] (NO: 6c NO-heme-His complex). Further, in assay [6] (ref [23]), the “conversion rate from 6c NO complex to 5c NO-heme complex” value was 8.5 s⁻¹.
